Source: the Kinase Knowledgebase extract (Sharma et al. 2016)

Biological target: PIK3CG (human) (UniProt P48736)
Experiment: Assessment of PIK3CG Kinase Activity

PIK3CG (human), sequence (P48736 whole entry, looked up): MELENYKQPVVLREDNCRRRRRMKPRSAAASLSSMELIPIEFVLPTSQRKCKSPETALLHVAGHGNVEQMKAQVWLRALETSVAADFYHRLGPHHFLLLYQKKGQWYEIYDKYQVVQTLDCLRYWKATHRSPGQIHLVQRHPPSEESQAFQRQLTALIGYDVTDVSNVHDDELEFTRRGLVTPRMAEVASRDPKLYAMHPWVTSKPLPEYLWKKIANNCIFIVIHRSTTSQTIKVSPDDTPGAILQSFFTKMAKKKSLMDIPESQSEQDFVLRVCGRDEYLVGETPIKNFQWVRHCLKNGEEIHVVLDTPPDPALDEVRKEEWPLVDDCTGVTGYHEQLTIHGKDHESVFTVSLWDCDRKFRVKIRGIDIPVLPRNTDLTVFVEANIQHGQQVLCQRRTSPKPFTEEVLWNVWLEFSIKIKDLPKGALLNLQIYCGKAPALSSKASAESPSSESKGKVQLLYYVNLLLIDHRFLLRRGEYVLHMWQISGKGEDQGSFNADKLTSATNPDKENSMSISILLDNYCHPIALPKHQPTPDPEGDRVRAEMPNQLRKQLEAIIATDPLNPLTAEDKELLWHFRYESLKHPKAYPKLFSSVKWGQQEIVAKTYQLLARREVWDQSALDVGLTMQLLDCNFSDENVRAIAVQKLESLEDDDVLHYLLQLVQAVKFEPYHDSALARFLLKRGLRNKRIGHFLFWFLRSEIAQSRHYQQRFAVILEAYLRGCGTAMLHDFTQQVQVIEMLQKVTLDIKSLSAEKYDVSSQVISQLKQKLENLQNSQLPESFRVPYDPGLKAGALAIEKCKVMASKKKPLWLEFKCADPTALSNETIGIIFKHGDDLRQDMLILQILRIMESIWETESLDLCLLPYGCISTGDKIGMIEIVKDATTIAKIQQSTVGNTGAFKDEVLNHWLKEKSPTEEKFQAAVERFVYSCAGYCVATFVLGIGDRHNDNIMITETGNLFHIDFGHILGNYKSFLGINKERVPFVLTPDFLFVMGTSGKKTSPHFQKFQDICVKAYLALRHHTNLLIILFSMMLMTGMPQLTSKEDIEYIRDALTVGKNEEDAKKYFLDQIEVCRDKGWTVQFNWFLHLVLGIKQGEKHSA

IC50, < 800 nM:
Cn1cc(CNC(=O)Nc2nc3c(s2)-c2nc(-c4ccccc4C(F)(F)F)ncc2CC3)cn1
O=C(NCCn1ccnc1)Nc1nc2c(s1)-c1nc(-c3ccccc3Cl)ncc1CC2
O=C(CCNC(=O)Nc1nc2c(s1)-c1nc(-c3ccccc3Cl)ncc1CC2)NC1CCCC1
Nc1cccc(CNC(=O)Nc2nc3c(s2)-c2nc(-c4ccccc4Cl)ncc2CC3)c1
CN(C)S(=O)(=O)Nc1cccc(CNC(=O)Nc2nc3c(s2)-c2nc(-c4ccccc4Cl)ncc2CC3)c1
CC1(C)NC(=O)N(Cc2ccc(CNC(=O)Nc3nc4c(s3)-c3nc(-c5ccccc5Cl)ncc3CC4)cc2)C1=O
O=C(Nc1nc2c(s1)-c1nc(-c3ccccc3Cl)ncc1CC2)NC1CCC(N2CCNC2=O)CC1 (stereo not drawn)
CN(C)CC(=O)N[C@H]1CCN(C(=O)Nc2nc3c(s2)-c2nc(-c4ccccc4Cl)ncc2CC3)C1
CN(C)CCCNC(=O)Nc1nc2c(s1)-c1nc(-c3ccccc3Cl)ncc1CC2
CC(C)CN(C)C(=O)CCNC(=O)Nc1nc2c(s1)-c1nc(-c3ccccc3Cl)ncc1CC2
COc1cccc([C@H](C)NC(=O)Nc2nc3c(s2)-c2nc(-c4ccccc4Cl)ncc2CC3)c1
CC(C)c1noc(CCNC(=O)Nc2nc3c(s2)-c2nc(-c4ccccc4Cl)ncc2CC3)n1
Cn1cc(CNC(=O)Nc2nc3c(s2)-c2nc(-c4cccc(F)c4Cl)ncc2CC3)cn1
O=C(Nc1nc2c(s1)-c1nc(-c3ccccc3Cl)ncc1CC2)N1CCCC(C(O)c2ccccc2)C1 (stereo not drawn)
CC(C)(C)c1ncc2c(n1)-c1sc(NC(N)=O)nc1CC2
CCc1nnc(CCNC(=O)Nc2nc3c(s2)-c2nc(-c4ccccc4F)ncc2CC3)o1
COc1cccc([C@@H](C)NC(=O)Nc2nc3c(s2)-c2nc(-c4ccccc4Cl)ncc2CC3)c1
CCNC(=O)Nc1nc2c(s1)-c1nc(-c3ccccc3F)ncc1CC2
CNC(=O)Nc1nc2c(s1)-c1nc(-c3cccc(F)c3Cl)ncc1CC2
CC(C)c1nnc(CCNC(=O)Nc2nc3c(s2)-c2nc(-c4ccccc4C(F)(F)F)ncc2CC3)o1
CN(C)C(=O)Nc1nc2c(s1)-c1nc(-c3ccccc3C(F)(F)F)ncc1CC2
CC(C)N(C)C(=O)c1cccc(CNC(=O)Nc2nc3c(s2)-c2nc(-c4ccccc4Cl)ncc2CC3)c1
O=C(CC1CC1)N[C@H]1CCN(C(=O)Nc2nc3c(s2)-c2nc(-c4ccccc4Cl)ncc2CC3)C1
Cn1cc(CNC(=O)Nc2nc3c(s2)-c2nc(-c4ccccc4Br)ncc2CC3)cn1
CN1CCN(C(=O)N[C@H]2CCN(C(=O)Nc3nc4c(s3)-c3nc(-c5ccccc5Cl)ncc3CC4)C2)CC1
O=C(NCc1cccc(NC(=O)N2CCOCC2)c1)Nc1nc2c(s1)-c1nc(-c3ccccc3Cl)ncc1CC2
O=C(NCc1cc(C2CC2)n[nH]1)Nc1nc2c(s1)-c1nc(-c3ccccc3Cl)ncc1CC2
O=C(NCc1ccc(CN2CCNC2=O)cc1)Nc1nc2c(s1)-c1nc(-c3ccccc3Cl)ncc1CC2
CC(C)(C)OC(=O)CCNC(=O)Nc1nc2c(s1)-c1nc(-c3ccccc3Br)ncc1CC2
CC(C)(C)OC(=O)N[C@H]1CCN(C(=O)Nc2nc3c(s2)-c2nc(-c4ccccc4Cl)ncc2CC3)C1
CC(C)(C)CC(=O)N[C@@H]1CCN(C(=O)Nc2nc3c(s2)-c2nc(-c4ccccc4Cl)ncc2CC3)C1
O=C(NCCC(=O)N1CCCCC1)Nc1nc2c(s1)-c1nc(-c3ccccc3Cl)ncc1CC2
CCN1CCC[C@H]1CNC(=O)Nc1nc2c(s1)-c1nc(-c3ccccc3Cl)ncc1CC2
CC(C)CNC(=O)c1cccc(CNC(=O)Nc2nc3c(s2)-c2nc(-c4ccccc4Cl)ncc2CC3)c1
O=C(CCNC(=O)Nc1nc2c(s1)-c1nc(-c3ccccc3Cl)ncc1CC2)NCC1CC1
O=C(Nc1nc2c(s1)-c1nc(-c3ccccc3Cl)ncc1CC2)N1CCOCC1
CC(C)c1cnc(CCNC(=O)Nc2nc3c(s2)-c2nc(-c4ccccc4Br)ncc2CC3)o1
CCNC(=O)CCNC(=O)Nc1nc2c(s1)-c1nc(-c3ccccc3Cl)ncc1CC2
CCCn1cnc(CCNC(=O)Nc2nc3c(s2)-c2nc(-c4ccccc4Cl)ncc2CC3)c1
CC(C)N(C)C(=O)Nc1cccc(CNC(=O)Nc2nc3c(s2)-c2nc(-c4ccccc4Cl)ncc2CC3)c1
CN(C)C(=O)CCNC(=O)Nc1nc2c(s1)-c1nc(-c3ccccc3Cl)ncc1CC2
O=C(NCc1ccccc1-n1cccn1)Nc1nc2c(s1)-c1nc(-c3ccccc3Cl)ncc1CC2
O=C(NCCN1CCOCC1)Nc1nc2c(s1)-c1nc(-c3ccccc3Cl)ncc1CC2
CN(C)C(=O)N[C@H]1CCN(C(=O)Nc2nc3c(s2)-c2nc(-c4ccccc4Cl)ncc2CC3)C1
O=C(Nc1ccccc1)Nc1nc2c(s1)-c1nc(-c3ccccc3Cl)ncc1CC2
NC(=O)Nc1nc2c(s1)-c1nc(-c3ccccc3Br)ncc1CC2
CC(C)CC(=O)N[C@@H]1CCN(C(=O)Nc2nc3c(s2)-c2nc(-c4ccccc4Cl)ncc2CC3)C1
O=C(NCc1cc(C2CC2)n[nH]1)Nc1nc2c(s1)-c1nc(-c3ccccc3Br)ncc1CC2
CC(C)(C)OC(=O)N1CCN(c2cccc(NC(=O)Nc3nc4c(s3)-c3nc(-c5ccccc5Cl)ncc3CC4)c2)CC1
CC(C)CCNC(=O)Nc1nc2c(s1)-c1nc(-c3ccccc3Cl)ncc1CC2
N#Cc1cccc(CNC(=O)Nc2nc3c(s2)-c2nc(-c4ccccc4Cl)ncc2CC3)c1
CN1CCN(C(=O)Nc2nc3c(s2)-c2nc(-c4ccccc4Cl)ncc2CC3)CC1
CCc1nnc(CCNC(=O)Nc2nc3c(s2)-c2nc(-c4ccccc4Br)ncc2CC3)o1
O=C(NCCCN1CCNC1=O)Nc1nc2c(s1)-c1nc(-c3ccccc3Cl)ncc1CC2
O=C1CC[C@H](NC(=O)Nc2nc3c(s2)-c2nc(-c4ccccc4Cl)ncc2CC3)CN1
O=C(O)[C@H]1[C@H](c2ccccc2)CCN1C(=O)Nc1nc2c(s1)-c1nc(-c3ccccc3Cl)ncc1CC2
CN(C)Cc1cccc(CNC(=O)Nc2nc3c(s2)-c2nc(-c4ccccc4Cl)ncc2CC3)c1
CC1(C)C(c2ccccc2)CCN1C(=O)Nc1nc2c(s1)-c1nc(-c3ccccc3Cl)ncc1CC2 (stereo not drawn)
